From the supplement of paper PMC6045584
± gives the standard deviation of the averaged measurements.

Columns and labels:
[1] = compound: Cc1cn(-c2cc(NC(=O)c3ccc(C)c(Nc4nccc(-c5cccnc5)n4)c3)cc(C(F)(F)F)c2)cn1 [NILOTINIB]; assay: surviving fraction relative to DMSO-only wells; higher = less growth inhibition; conditions: exposure time: 5 days
In short: (§1)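 Continuous five-day exposure to inhibitors at 0.5, 1, 5, 10, 50, 100, 500 and 1000 nM started 24 hours after log-phase tumour cell lines were seeded at 250–500 cells per well in 384-well plates. Luminescence was read after 10 minutes at room temperature. Viability is given as surviving fraction, meaning CellTiter-Glo luminescence normalised to the median of DMSO-only wells.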

[2] = compound: CCc1cc(Nc2nccc(-c3c(-c4ccc(OC)c(C(=O)Nc5c(F)cccc5F)c4)nc4ccccn34)n2)c(OC)cc1N1CCC(N2CCN(S(C)(=O)=O)CC2)CC1; assay: as above; conditions: exposure time: 5 days
In short: as §1

| Test System | surviving fraction ([1]; 0.5 nM) | surviving fraction ([1]; 1 nM) | surviving fraction ([1]; 5 nM) | surviving fraction ([1]; 10 nM) | surviving fraction ([1]; 50 nM) | surviving fraction ([1]; 100 nM) | surviving fraction ([1]; 500 nM) | surviving fraction ([1]; 1000 nM) | surviving fraction ([2]; 0.5 nM) | surviving fraction ([2]; 1 nM) | surviving fraction ([2]; 5 nM) | surviving fraction ([2]; 10 nM) | surviving fraction ([2]; 50 nM) | surviving fraction ([2]; 100 nM) | surviving fraction ([2]; 500 nM) | surviving fraction ([2]; 1000 nM) |
| --- | --- | --- | --- | --- | --- | --- | --- | --- | --- | --- | --- | --- | --- | --- | --- | --- |
| SG31 HEADNECK | 1.24 ± 0.13 | 1.2 ± 0.13 | 1.08 ± 0.11 | 1.24 ± 0.21 | 1.14 ± 0.081 | 1.26 ± 0.17 | 1.02 ± 0.15 | 1.16 ± 0.13 | 0.923 ± 0.036 | 1.08 ± 0.23 | 1.04 ± 0.2 | 0.903 ± 0.099 | 1.04 ± 0.14 | 1.14 ± 0.2 | 1.08 ± 0.26 | 1.1 ± 0.086 |
| NCIH441 LUNG | 1.08 ± 0.14 | 1.01 ± 0.024 | 1.11 ± 0.037 | 1.05 ± 0.043 | 0.986 ± 0.11 | 0.91 ± 0.17 | 0.874 ± 0.022 | 0.889 ± 0.064 | 0.964 ± 0.035 | 0.977 ± 0.13 | 0.99 ± 0.029 | 0.989 ± 0.059 | 0.997 ± 0.04 | 1.07 ± 0.065 | 0.917 ± 0.072 | 0.979 ± 0.092 |
| HOS BONE | 1.05 ± 0.024 | 1.014 ± 0.0049 | 1.05 ± 0.033 | 1.05 ± 0.025 | 1.065 ± 0.0095 | 1.04 ± 0.026 | 1.03 ± 0.025 | 1.02 ± 0.041 | 1.008 ± 0.004 | 1.028 ± 0.0032 | 1.06 ± 0.018 | 1.05 ± 0.028 | 1.06 ± 0.026 | 1.047 ± 0.0083 | 0.956 ± 0.017 | 0.89 ± 0.014 |
| SAOS2 BONE | 1.13 ± 0.064 | 1.09 ± 0.038 | 1.19 ± 0.035 | 1.21 ± 0.062 | 0.963 ± 0.072 | 0.912 ± 0.091 | 0.91 ± 0.016 | 0.905 ± 0.06 | 1.1 ± 0.024 | 1.04 ± 0.025 | 1.11 ± 0.035 | 1.144 ± 0.0087 | 1.09 ± 0.016 | 1.19 ± 0.025 | 1.16 ± 0.045 | 1.11 ± 0.018 |
| DU4475 BREAST | 1.12 ± 0.018 | 1.06 ± 0.023 | 1.14 ± 0.13 | 1.06 ± 0.063 | 0.925 ± 0.088 | 1.06 ± 0.1 | 1.05 ± 0.066 | 0.9 ± 0.061 | 0.866 ± 0.12 | 0.937 ± 0.041 | 0.819 ± 0.072 | 1 ± 0.06 | 0.977 ± 0.28 | 0.832 ± 0.27 | 1.11 ± 0.34 | 1.19 ± 0.24 |
| CAL120 BREAST | 1.02 ± 0.041 | 1.02 ± 0.012 | 1.04 ± 0.052 | 1.03 ± 0.035 | 1.04 ± 0.027 | 1.01 ± 0.072 | 1.04 ± 0.081 | 1.02 ± 0.049 | 0.944 ± 0.013 | 0.9663 ± 0.0055 | 0.968 ± 0.013 | 0.976 ± 0.032 | 0.976 ± 0.032 | 0.977 ± 0.024 | 0.944 ± 0.031 | 0.945 ± 0.021 |
| MDAMB157 BREAST | 1.11 ± 0.045 | 0.957 ± 0.047 | 1.09 ± 0.083 | 1.11 ± 0.041 | 1.1 ± 0.066 | 1.07 ± 0.018 | 0.932 ± 0.17 | 0.928 ± 0.063 | 0.834 ± 0.049 | 0.96 ± 0.15 | 0.973 ± 0.12 | 0.996 ± 0.052 | 0.934 ± 0.058 | 1.04 ± 0.094 | 0.94 ± 0.06 | 0.982 ± 0.14 |
| SG43 HEADNECK | 1.19 ± 0.17 | 1.12 ± 0.25 | 1.05 ± 0.13 | 1.05 ± 0.055 | 1.66 ± 0.17 | 1.76 ± 0.32 | 1.93 ± 0.23 | 1.98 ± 0.2 | 1.18 ± 0.18 | 1.1 ± 0.26 | 0.948 ± 0.15 | 0.985 ± 0.15 | 1.13 ± 0.046 | 0.908 ± 0.12 | 1.38 ± 0.024 | 1.25 ± 0.3 |
| MDAMB231 BREAST | 0.935 ± 0.052 | 0.919 ± 0.025 | 0.866 ± 0.036 | 0.839 ± 0.038 | 0.763 ± 0.043 | 0.857 ± 0.017 | 0.923 ± 0.036 | 0.866 ± 0.039 | 0.973 ± 0.025 | 1 ± 0.03 | 1.01 ± 0.033 | 1.03 ± 0.017 | 0.962 ± 0.024 | 1 ± 0.019 | 0.906 ± 0.022 | 0.875 ± 0.018 |
| BT549 BREAST | 1.1 ± 0.15 | 0.924 ± 0.095 | 1.1 ± 0.11 | 1.12 ± 0.11 | 1.05 ± 0.11 | 0.93 ± 0.14 | 1.01 ± 0.16 | 0.964 ± 0.15 | 1.03 ± 0.098 | 1.06 ± 0.033 | 1.14 ± 0.097 | 1.13 ± 0.082 | 1.07 ± 0.1 | 1.12 ± 0.1 | 1.08 ± 0.074 | 0.852 ± 0.019 |
| VP229 BREAST | 1.24 ± 0.14 | 1.12 ± 0.11 | 1.04 ± 0.075 | 1.18 ± 0.24 | 1.05 ± 0.041 | 1.08 ± 0.094 | 1.28 ± 0.04 | 1.12 ± 0.059 | 1.13 ± 0.059 | 1.08 ± 0.033 | 1.24 ± 0.11 | 1.17 ± 0.063 | 1.09 ± 0.13 | 1.09 ± 0.052 | 1.18 ± 0.17 | 0.875 ± 0.12 |
| CASKI CERVIX | 0.914 ± 0.026 | 0.993 ± 0.024 | 1.01 ± 0.063 | 0.96 ± 0.045 | 0.88 ± 0.063 | 0.785 ± 0.035 | 0.764 ± 0.13 | 0.77 ± 0.075 | 0.937 ± 0.051 | 0.949 ± 0.055 | 0.97 ± 0.048 | 0.979 ± 0.04 | 0.946 ± 0.015 | 1.01 ± 0.043 | 0.967 ± 0.07 | 0.88 ± 0.039 |
| BT20 BREAST | 1.076 ± 0.0072 | 1.073 ± 0.0027 | 1.06 ± 0.05 | 1.16 ± 0.084 | 0.913 ± 0.14 | 1.01 ± 0.14 | 0.984 ± 0.12 | 0.878 ± 0.062 | 1.06 ± 0.11 | 1.01 ± 0.086 | 1.09 ± 0.018 | 1.13 ± 0.14 | 0.932 ± 0.068 | 0.941 ± 0.036 | 0.825 ± 0.074 | 0.707 ± 0.029 |
| MG63 BONE | 1.03 ± 0.04 | 1.04 ± 0.053 | 1.11 ± 0.042 | 1.13 ± 0.079 | 1.19 ± 0.043 | 1.23 ± 0.07 | 1.24 ± 0.047 | 1.28 ± 0.049 | 0.953 ± 0.012 | 0.987 ± 0.028 | 1.005 ± 0.01 | 1.06 ± 0.026 | 0.968 ± 0.034 | 1.01 ± 0.014 | 0.956 ± 0.029 | 0.976 ± 0.047 |
| CAL51 BREAST | 0.977 ± 0.039 | 0.897 ± 0.066 | 1.01 ± 0.038 | 0.947 ± 0.073 | 1.03 ± 0.068 | 1.01 ± 0.06 | 0.952 ± 0.059 | 0.971 ± 0.032 | 0.995 ± 0.06 | 1 ± 0.025 | 0.998 ± 0.029 | 1.03 ± 0.068 | 1.02 ± 0.017 | 1.04 ± 0.05 | 1.03 ± 0.043 | 1.03 ± 0.042 |
| MDAMB468 BREAST | 0.908 ± 0.055 | 0.931 ± 0.043 | 0.935 ± 0.069 | 1.05 ± 0.024 | 0.927 ± 0.037 | 0.835 ± 0.0095 | 0.9353 ± 0.0015 | 0.927 ± 0.045 | 0.909 ± 0.09 | 1.04 ± 0.053 | 1.12 ± 0.047 | 1.14 ± 0.041 | 1.04 ± 0.091 | 1.17 ± 0.073 | 1.04 ± 0.07 | 1.06 ± 0.041 |
| 22RV1 PROSTATE | 1.04 ± 0.05 | 1.07 ± 0.026 | 1.13 ± 0.079 | 1 ± 0.022 | 1.18 ± 0.13 | 1.09 ± 0.1 | 1.09 ± 0.043 | 1.09 ± 0.038 | 1 ± 0.014 | 1.02 ± 0.023 | 0.989 ± 0.014 | 0.953 ± 0.026 | 1.01 ± 0.024 | 0.991 ± 0.057 | 0.989 ± 0.033 | 0.946 ± 0.042 |
| JURKAT HAEMATOPOIETIC AND LYMPHOID TISSUE | 1.1 ± 0.025 | 1.1 ± 0.027 | 1.07 ± 0.029 | 1.06 ± 0.021 | 1.042 ± 0.009 | 1.02 ± 0.044 | 1.04 ± 0.026 | 0.91 ± 0.057 | 1.06 ± 0.011 | 1.07 ± 0.029 | 1.06 ± 0.027 | 1.07 ± 0.021 | 1.05 ± 0.022 | 1.01 ± 0.029 | 0.973 ± 0.034 | 0.886 ± 0.037 |
| HUO3N1 BONE | 0.993 ± 0.012 | 0.986 ± 0.048 | 1.12 ± 0.047 | 1.08 ± 0.038 | 0.985 ± 0.051 | 1 ± 0.041 | 1.005 ± 0.0097 | 0.936 ± 0.054 | 0.94 ± 0.044 | 0.986 ± 0.032 | 1 ± 0.028 | 1.05 ± 0.06 | 1.01 ± 0.011 | 0.995 ± 0.052 | 0.947 ± 0.031 | 0.908 ± 0.024 |
| HCC1395 BREAST | 1.01 ± 0.038 | 0.988 ± 0.097 | 1.2 ± 0.074 | 1.19 ± 0.023 | 1.03 ± 0.055 | 1.03 ± 0.16 | 0.854 ± 0.062 | 0.929 ± 0.14 | 0.903 ± 0.1 | 0.903 ± 0.17 | 0.965 ± 0.24 | 0.916 ± 0.037 | 1.13 ± 0.2 | 0.831 ± 0.19 | 0.855 ± 0.22 | 0.934 ± 0.17 |
| ZR751 BREAST | 1.05 ± 0.13 | 1.01 ± 0.11 | 1.069 ± 0.0042 | 1.03 ± 0.14 | 0.895 ± 0.03 | 0.834 ± 0.14 | 0.826 ± 0.058 | 0.66 ± 0.073 | 0.886 ± 0.14 | 0.98 ± 0.062 | 0.876 ± 0.11 | 0.935 ± 0.1 | 0.87 ± 0.07 | 0.895 ± 0.12 | 0.928 ± 0.094 | 0.954 ± 0.093 |
